We go through four compounds from ChEMBL document CHEMBL2057116, “A novel tetrahydrobenzoangelicin with dark and photo biological activity” (Bioorg Med Chem, 2012).

Activity calls are given as the source filed them. No cut-off for these calls is given here.

Experiment [1] has as its system A-431. Nature of the experiment: Antiproliferative activity against human A431 cells after 24 hrs by trypan blue dye assay. Type of experiment: functional, cell-based. The following applies: A-431, 24 h.
The subject of experiment [2] is HeLa. Nature of the experiment: Antiproliferative activity against human HeLa cells after 24 hrs by trypan blue dye assay. Type of experiment: functional, cell-based.
Experiment [3] concerns A-431. As to the kind of experiment: Antiproliferative activity against human A431 cells incubated for 1 hr with inhibitor followed by UV irradiation measured after 24 hrs by trypan blue dye assay. Type of experiment: functional, cell-based. The following applies: A-431, light or radiation study.
Experiment [4] relates to HeLa. As to the kind of experiment: Antiproliferative activity against human HeLa cells incubated for 1 hr with inhibitor followed by UV irradiation measured after 24 hrs by trypan blue dye assay. The format is functional, cell-based. Conditions: light or radiation study.
The subject of experiment [5] is HeLa. Nature of the experiment: Ratio of IC50 for 8-MOP to compound IC50 for human HeLa cells incubated for 1 hr with inhibitor followed by UV irradiation measured after 24 hrs by trypan blue dye assay. The format is functional.
The test system of experiment [6] is A-431. Nature of the experiment: Ratio of IC50 for 8-MOP to compound IC50 for human A431 cells incubated for 1 hr with inhibitor followed by UV irradiation measured after 24 hrs by trypan blue dye assay. Type of experiment: functional.
Experiment [7] concerns the target DNA topoisomerase 2-alpha (Homo sapiens) (UniProt P11388). As to the kind of experiment: Inhibition of human recombinant topoisomerase 2alpha-mediated pBR322 DNA relaxation at 10 uM after 60 mins by agarose gel electrophoretic analysis.
For experiment [8] the target is unchanged. As to the kind of experiment: Inhibition of human recombinant topoisomerase 2alpha-mediated pBR322 DNA relaxation after 60 mins by agarose gel electrophoretic analysis.
The target is the same in experiment [9]. As to the kind of experiment: Inhibition of human recombinant topoisomerase 2alpha-mediated pBR322 DNA complex formation at 10 uM after 60 mins by agarose gel electrophoresis.
In experiment [10] the test system is Nucleic Acid. Nature of the experiment: Photoaddition to salmon testes DNA assessed as thymine-photoadduct formation by UV-Vis spectrophotometric analysis. Type of experiment: nucleic-acid assay. The following applies: Salmonidae.
Experiment [11] concerns Nucleic Acid. As to the kind of experiment: Binding affinity to salmon testes DNA assessed as change in linear dichroism at compound to DNA ratio of 0.02 to 0.08 by circular dichroism analysis. The format is nucleic-acid assay. The following applies: Salmonidae. In general terms: Circular dichroism is widely used to follow secondary structure.
The target in experiment [12] is DNA topoisomerase 2-alpha (Homo sapiens) (UniProt P11388). Nature of the experiment: Inhibition of human recombinant topoisomerase 2alpha-mediated pBR322 DNA relaxation at 5 uM after 60 mins by agarose gel electrophoretic analysis.
For experiment [13] the target is unchanged. Nature of the experiment: Inhibition of human recombinant topoisomerase 2alpha-mediated pBR322 DNA complex formation at 8 uM after 60 mins by agarose gel electrophoresis.
For experiment [14] the target is unchanged. Nature of the experiment: Inhibition of human recombinant topoisomerase 2alpha-mediated pBR322 DNA relaxation at 8 uM after 60 mins by agarose gel electrophoretic analysis.

DNA topoisomerase 2-alpha (Homo sapiens), sequence (P11388 whole entry): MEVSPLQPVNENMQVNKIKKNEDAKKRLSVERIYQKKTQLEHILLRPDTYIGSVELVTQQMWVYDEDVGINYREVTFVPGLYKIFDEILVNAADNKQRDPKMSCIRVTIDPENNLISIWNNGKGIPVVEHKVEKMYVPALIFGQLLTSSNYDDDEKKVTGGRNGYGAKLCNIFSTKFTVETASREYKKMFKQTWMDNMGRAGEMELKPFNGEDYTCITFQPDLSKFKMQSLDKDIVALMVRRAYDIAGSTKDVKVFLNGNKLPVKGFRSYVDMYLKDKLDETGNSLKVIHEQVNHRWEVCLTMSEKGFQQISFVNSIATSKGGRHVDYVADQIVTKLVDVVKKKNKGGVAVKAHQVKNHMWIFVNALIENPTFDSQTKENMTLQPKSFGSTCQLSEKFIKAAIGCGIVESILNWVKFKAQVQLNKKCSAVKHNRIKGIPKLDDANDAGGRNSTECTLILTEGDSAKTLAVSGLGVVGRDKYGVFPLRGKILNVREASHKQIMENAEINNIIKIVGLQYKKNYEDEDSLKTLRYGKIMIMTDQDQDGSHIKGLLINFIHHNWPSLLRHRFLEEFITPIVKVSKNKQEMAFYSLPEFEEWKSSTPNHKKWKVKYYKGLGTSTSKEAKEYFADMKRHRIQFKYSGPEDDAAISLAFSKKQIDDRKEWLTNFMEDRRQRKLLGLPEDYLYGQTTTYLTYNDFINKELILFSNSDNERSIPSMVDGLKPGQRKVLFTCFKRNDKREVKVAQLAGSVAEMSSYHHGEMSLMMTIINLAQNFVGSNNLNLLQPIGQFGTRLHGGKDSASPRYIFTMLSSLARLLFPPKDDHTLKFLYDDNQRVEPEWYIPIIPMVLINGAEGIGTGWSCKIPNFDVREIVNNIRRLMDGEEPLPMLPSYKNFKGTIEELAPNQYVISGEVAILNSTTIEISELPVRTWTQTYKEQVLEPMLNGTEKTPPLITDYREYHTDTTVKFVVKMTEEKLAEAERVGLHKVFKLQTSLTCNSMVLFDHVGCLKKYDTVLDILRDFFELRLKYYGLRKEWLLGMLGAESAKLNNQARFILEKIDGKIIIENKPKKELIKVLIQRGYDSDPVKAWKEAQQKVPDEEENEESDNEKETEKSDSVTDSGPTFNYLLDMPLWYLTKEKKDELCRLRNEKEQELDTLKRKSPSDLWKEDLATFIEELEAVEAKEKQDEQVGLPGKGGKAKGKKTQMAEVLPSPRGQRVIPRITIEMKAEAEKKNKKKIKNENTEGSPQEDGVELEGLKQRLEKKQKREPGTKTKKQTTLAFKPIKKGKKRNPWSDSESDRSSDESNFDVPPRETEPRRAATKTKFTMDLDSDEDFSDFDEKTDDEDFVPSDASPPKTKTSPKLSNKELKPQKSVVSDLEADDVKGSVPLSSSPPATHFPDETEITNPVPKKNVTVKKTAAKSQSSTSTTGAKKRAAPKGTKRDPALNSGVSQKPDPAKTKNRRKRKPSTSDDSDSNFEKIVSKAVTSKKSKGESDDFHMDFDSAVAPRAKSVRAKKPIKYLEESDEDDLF

As for `COc1c2occc2cc2ccc(=O)oc12` [METHOXSALEN], the IC50 in the experiment on A-431 [1] was above 30 µM; in the experiment on HeLa [2], above 30 µM; in the experiment with A-431 [3] it was 25 µM.
Turning to `Cc1cc(=O)oc2c1c(OCCCN(C)C)cc1oc3ccccc3c12`, the IC50 was above 20 µM in the experiment on A-431 [1], above 20 µM in the experiment with HeLa [2], 1.4 µM in the experiment on HeLa [4] and 4.2 µM in the experiment on A-431 [3]. The “Ratio IC50” value in the experiment on HeLa [5] and with A-431 [6] was 5.9 in each case.
As to `Cc1cc(=O)oc2c1c(OCCCN(C)C)cc1oc3c(c12)CCCC3`, the inhibition entry in [7] and in experiment [12] was “Active” throughout. For the same compound, the inhibition entry in experiment [8] is “Dose-dependent effect”. Further, the inhibition result in experiment [9] was “inactive”. For the same compound, the result in the experiment with Nucleic Acid [10] and in the experiment on Nucleic Acid [11] was Active. Also, the IC50 with A-431 [1] amounted to 6.7 µM; in the experiment on HeLa [2], 7.2 µM; in the experiment with HeLa [4] it was 0.4 µM; with A-431 [3], 2 µM. In addition, the “Ratio IC50” value in the experiment with HeLa [5] and in the experiment with A-431 [6] was 5.9 throughout.
In the case of `COc1cc(NS(C)(=O)=O)ccc1Nc1c2ccccc2nc2ccccc12`, the inhibition entry in [13] and in experiment [14] was “Active” in each case.

In general, IC50 refers to the concentration needed to halve the response being measured.
